Experimental data from paper PMC4685510, “A Cell Biologist’s Field Guide to Aurora Kinase Inhibitors” (Frontiers in Oncology, 2015).

Tests used:
Test in all cases: biochemical
Assay type in all cases: biochemical
[1] = target: 363 human kinases (including Aurora A/B/C) (Homo sapiens, UniProt P54764); conditions: EPHA4, [ATP] 30 µM; for remaining activity at 0.1 µM: 100 nM; for remaining activity at 0.1 µM / remaining activity at 0.5 µM: read-out: % Enzyme Activity (relative to DMSO controls)
Description: (§1) However, the Aurora A/B selectivity ratios derived from our in vitro and in vivo data can be compared to prioritize inhibitors.

[2] = target: T1, 363 human kinases (including Aurora A/B/C) (Homo sapiens, UniProt P29323); conditions: EPHB2, [ATP] 30 µM; for remaining activity at 0.1 µM: 100 nM; for remaining activity at 0.1 µM / remaining activity at 0.5 µM: read-out: % Enzyme Activity (relative to DMSO controls)
T1 sequence (P29323 19-1055): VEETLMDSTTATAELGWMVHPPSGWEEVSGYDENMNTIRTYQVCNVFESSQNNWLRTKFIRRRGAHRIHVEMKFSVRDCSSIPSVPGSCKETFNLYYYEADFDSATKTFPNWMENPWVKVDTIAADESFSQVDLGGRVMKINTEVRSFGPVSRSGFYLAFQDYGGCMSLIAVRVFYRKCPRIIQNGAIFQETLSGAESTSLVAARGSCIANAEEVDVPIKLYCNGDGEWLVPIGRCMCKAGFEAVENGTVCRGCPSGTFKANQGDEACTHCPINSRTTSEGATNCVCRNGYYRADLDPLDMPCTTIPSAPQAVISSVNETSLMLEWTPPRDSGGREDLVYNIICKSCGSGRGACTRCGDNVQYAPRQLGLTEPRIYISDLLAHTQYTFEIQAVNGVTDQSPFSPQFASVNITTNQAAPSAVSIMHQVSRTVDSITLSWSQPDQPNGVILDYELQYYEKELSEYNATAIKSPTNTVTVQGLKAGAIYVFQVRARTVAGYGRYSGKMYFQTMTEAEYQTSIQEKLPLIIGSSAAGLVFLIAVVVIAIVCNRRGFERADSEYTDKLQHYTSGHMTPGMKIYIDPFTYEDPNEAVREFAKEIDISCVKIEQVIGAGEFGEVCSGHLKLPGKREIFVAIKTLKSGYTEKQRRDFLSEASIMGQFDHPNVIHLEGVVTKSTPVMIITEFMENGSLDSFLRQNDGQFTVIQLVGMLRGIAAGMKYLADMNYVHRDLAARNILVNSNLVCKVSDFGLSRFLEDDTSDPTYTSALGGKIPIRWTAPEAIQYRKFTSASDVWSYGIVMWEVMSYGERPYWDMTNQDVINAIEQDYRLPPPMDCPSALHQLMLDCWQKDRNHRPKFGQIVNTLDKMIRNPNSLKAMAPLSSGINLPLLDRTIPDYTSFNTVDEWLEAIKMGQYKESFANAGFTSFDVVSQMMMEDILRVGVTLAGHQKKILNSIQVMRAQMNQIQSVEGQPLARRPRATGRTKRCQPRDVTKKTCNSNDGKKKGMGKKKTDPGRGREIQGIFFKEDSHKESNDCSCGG
Description: as §1

[3] = target: T2, 363 human kinases (including Aurora A/B/C) (Homo sapiens, UniProt Q6PHR2); conditions: ULK3; for remaining activity at 0.1 µM: 100 nM; for remaining activity at 0.1 µM / remaining activity at 0.5 µM: read-out: % Enzyme Activity (relative to DMSO controls)
T2 sequence (Q6PHR2 1-472): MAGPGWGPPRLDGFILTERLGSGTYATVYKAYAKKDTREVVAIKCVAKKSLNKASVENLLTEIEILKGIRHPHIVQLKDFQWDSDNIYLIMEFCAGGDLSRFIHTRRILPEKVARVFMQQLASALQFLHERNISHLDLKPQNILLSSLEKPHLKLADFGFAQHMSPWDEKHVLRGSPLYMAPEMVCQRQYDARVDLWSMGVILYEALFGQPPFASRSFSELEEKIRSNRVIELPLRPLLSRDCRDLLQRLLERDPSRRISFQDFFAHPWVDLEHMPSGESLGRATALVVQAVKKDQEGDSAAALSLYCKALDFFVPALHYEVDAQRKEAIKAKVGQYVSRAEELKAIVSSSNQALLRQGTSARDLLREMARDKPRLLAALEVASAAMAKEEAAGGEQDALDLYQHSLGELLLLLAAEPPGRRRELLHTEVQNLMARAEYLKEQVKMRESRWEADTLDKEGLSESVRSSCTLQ
Description: as §1

[4] = target: T3, 363 human kinases (including Aurora A/B/C) (Homo sapiens, UniProt Q8TF76); conditions: Haspin; for remaining activity at 0.1 µM: 100 nM; for remaining activity at 0.1 µM / remaining activity at 0.5 µM: read-out: % Enzyme Activity (relative to DMSO controls)
T3 sequence (Q8TF76 1-798): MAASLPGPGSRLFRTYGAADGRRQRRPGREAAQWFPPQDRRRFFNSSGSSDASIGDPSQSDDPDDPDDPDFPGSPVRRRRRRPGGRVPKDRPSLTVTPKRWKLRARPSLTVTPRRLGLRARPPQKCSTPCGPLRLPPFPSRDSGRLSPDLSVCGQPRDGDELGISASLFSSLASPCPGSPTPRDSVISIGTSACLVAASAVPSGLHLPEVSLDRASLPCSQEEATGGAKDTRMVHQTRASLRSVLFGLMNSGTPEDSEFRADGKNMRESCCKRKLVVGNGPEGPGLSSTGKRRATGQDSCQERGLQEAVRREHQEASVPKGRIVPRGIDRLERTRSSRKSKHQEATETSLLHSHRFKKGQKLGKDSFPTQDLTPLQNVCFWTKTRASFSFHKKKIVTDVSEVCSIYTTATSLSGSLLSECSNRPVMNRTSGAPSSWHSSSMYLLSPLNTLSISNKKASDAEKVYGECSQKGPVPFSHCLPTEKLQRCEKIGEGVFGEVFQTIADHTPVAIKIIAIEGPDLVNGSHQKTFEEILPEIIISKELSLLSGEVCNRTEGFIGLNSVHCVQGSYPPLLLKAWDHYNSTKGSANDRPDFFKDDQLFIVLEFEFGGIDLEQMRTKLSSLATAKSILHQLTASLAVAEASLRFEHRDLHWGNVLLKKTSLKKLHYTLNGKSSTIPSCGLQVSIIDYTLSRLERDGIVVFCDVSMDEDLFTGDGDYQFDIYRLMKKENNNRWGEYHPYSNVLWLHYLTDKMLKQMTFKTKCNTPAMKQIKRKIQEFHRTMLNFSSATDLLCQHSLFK
Description: as §1

[5] = target: 363 human kinases (including Aurora A/B/C) (Homo sapiens, UniProt Q9H0K1); conditions: SIK2; for remaining activity at 0.1 µM: 100 nM; for remaining activity at 0.1 µM / remaining activity at 0.5 µM: read-out: % Enzyme Activity (relative to DMSO controls)
Description: as §1

[6] = target: T4, 363 human kinases (including Aurora A/B/C) (Homo sapiens, UniProt Q96PN8); conditions: TSSK3/STK22C; for remaining activity at 0.1 µM: 100 nM; for remaining activity at 0.1 µM / remaining activity at 0.5 µM: read-out: % Enzyme Activity (relative to DMSO controls)
T4 sequence (Q96PN8 1-268): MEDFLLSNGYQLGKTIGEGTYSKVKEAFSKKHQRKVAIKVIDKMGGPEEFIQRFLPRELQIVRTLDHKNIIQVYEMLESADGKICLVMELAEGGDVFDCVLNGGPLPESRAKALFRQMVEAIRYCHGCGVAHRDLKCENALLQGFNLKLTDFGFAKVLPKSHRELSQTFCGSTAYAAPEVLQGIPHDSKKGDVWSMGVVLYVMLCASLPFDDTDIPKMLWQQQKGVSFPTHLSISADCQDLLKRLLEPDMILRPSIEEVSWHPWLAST
Description: as §1

363 human kinases (including Aurora A/B/C) (Homo sapiens, UniProt Q9H0K1), sequence (Q9H0K1 whole entry): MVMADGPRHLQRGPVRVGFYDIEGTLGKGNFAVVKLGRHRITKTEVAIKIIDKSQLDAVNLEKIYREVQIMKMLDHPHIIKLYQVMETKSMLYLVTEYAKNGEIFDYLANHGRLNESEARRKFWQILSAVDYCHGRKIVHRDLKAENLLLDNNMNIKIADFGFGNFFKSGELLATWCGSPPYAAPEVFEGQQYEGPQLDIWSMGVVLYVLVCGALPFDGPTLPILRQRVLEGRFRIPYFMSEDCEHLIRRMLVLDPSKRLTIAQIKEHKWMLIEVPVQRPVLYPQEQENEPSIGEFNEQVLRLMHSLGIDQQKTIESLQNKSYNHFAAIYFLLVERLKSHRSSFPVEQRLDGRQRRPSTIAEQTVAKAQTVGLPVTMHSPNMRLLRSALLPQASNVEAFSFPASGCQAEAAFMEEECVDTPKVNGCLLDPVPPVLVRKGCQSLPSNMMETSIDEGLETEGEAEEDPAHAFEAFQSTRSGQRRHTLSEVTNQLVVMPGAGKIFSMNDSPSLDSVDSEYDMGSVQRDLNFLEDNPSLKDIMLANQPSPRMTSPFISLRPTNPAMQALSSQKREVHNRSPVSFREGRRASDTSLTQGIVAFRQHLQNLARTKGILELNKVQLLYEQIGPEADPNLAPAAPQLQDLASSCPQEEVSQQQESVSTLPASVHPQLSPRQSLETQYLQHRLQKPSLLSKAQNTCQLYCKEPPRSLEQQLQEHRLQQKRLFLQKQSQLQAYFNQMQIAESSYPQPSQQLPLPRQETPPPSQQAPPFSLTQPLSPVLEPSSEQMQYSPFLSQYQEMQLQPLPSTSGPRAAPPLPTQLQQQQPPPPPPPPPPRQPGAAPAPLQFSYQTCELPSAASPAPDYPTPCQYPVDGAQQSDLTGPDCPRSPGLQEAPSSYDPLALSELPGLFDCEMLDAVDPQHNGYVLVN
363 human kinases (including Aurora A/B/C) (Homo sapiens, UniProt P54764), sequence (P54764 20-986): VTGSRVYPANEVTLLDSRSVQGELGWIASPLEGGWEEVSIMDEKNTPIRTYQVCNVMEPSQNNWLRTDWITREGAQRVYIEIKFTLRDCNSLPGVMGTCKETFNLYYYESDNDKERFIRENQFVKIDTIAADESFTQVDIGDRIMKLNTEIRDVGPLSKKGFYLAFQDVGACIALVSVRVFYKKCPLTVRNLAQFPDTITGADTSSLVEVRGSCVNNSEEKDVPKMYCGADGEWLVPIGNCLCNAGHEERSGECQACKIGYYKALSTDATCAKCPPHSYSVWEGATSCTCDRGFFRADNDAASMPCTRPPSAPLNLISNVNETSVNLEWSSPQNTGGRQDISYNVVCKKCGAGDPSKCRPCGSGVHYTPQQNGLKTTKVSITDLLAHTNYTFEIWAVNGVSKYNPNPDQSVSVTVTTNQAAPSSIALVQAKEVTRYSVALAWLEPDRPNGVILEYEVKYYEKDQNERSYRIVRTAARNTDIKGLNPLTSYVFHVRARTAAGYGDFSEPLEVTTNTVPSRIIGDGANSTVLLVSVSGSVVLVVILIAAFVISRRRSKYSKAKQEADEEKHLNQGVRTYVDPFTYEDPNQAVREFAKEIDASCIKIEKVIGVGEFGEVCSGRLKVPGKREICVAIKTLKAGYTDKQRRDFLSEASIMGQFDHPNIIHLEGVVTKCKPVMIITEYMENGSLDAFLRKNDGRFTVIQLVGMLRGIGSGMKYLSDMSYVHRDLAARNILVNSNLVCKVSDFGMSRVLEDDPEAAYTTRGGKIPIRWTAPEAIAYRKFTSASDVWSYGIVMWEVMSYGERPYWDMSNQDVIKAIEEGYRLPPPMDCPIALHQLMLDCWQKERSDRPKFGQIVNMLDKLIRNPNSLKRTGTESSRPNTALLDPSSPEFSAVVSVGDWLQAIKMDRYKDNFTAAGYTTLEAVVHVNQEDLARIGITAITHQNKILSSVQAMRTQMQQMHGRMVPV

SMILES | remaining activity at 0.1 µM [1] | remaining activity at 0.1 µM [2] | remaining activity at 0.1 µM [3] | remaining activity at 0.1 µM [4] | remaining activity at 0.1 µM [5] | remaining activity at 0.1 µM [6] | remaining activity at 0.5 µM ([1]; 500 nM) | remaining activity at 0.5 µM ([2]; 500 nM) | remaining activity at 0.5 µM ([3]; 500 nM) | remaining activity at 0.5 µM ([4]; 500 nM) | remaining activity at 0.5 µM ([5]; 500 nM) | remaining activity at 0.5 µM ([6]; 500 nM) | % Enzyme Activity (relative to DMSO controls) ([1]; 500 nM) | % Enzyme Activity (relative to DMSO controls) ([2]; 500 nM) | % Enzyme Activity (relative to DMSO controls) ([3]; 500 nM) | % Enzyme Activity (relative to DMSO controls) ([4]; 500 nM) | % Enzyme Activity (relative to DMSO controls) ([5]; 500 nM) | % Enzyme Activity (relative to DMSO controls) ([6]; 500 nM)
CCn1cc(-c2ccnc3[nH]c(-c4cccc(CN(C)C)c4)cc23)c(-c2ccc(NC(=O)N(C)C)cc2)n1 [GSK1070916] | 100% | 97.1% | 93.8% | 86.9% | 40% | 83% | – | – | – | – | – | – | – | – | – | – | – | –
O=C(O)[C@]1(Cc2cccc(Nc3nccs3)n2)CC[C@@H](Oc2cccc(Cl)c2F)CC1 [MK-5108] | 50.2% | 59.4% | 89.6% | 101% | 96.5% | 101% | 21.2% | 32% | 62.1% | 74% | 93.3% | 91.3% | – | – | – | – | – | –
O=C(c1cccc(Cl)c1F)N1CCN(Cc2cccc(Nc3nccs3)n2)CC1 [MK-8745] | – | – | – | – | – | – | 87.2% | 81.8% | 94.4% | 102% | 98.7% | 95.9% | 87.10% | 80.85% | 93.40% | 100.89% | 96.62% | 94.05%
